Values joined by “and” are separate entries in the source; they are usually repeats but may differ in a detail not shown here. Equal values may be shown once.
How the values were obtained:
Details in all cases: incubation time: 72 h
[1] = test system: HCC1143; assay: normalised response (% of control), CellTiter-Glo; higher = more viable cells (100 = DMSO, 0 = benzethonium chloride kill control)
Procedure, shortened: (§1)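 Every value is a normalised signal taken at one concentration of a dilution series. Compound was placed in 384-well plates at 5 concentrations in 10-fold steps over a compound-specific 10,000-fold range, and 20 µl of breast cancer cell suspension was seeded onto it. After 72 h, CellTox Green fluorescence (485/520 nm) was measured first and CellTiter-Glo luminescence second, following 10 min at room temperature. Each plate was scaled to 0.1 % DMSO (100) and a positive kill control (0).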

[2] = test system: MDA-MB-468; assay: as above
Procedure, shortened: as §1

[3] = test system: HCC1937; assay: as above
Procedure, shortened: as §1

[4] = test system: CAL-85-1; assay: as above
Procedure, shortened: as §1

[5] = test system: MDA-MB-453; assay: as above
Procedure, shortened: as §1

[6] = test system: MFM-223; assay: as above
Procedure, shortened: as §1

[7] = test system: MDA-MB-436; assay: as above
Procedure, shortened: as §1

[8] = test system: BT-549; assay: as above
Procedure, shortened: as §1

[9] = test system: MDA-MB-231; assay: as above
Procedure, shortened: as §1

[10] = test system: HDQ-P1; assay: as above
Procedure, shortened: as §1

[11] = test system: Hs578T; assay: as above
Procedure, shortened: as §1

[12] = test system: CAL-148; assay: as above
Procedure, shortened: as §1

[13] = test system: SK-BR-3; assay: as above
Procedure, shortened: as §1

[14] = test system: CAL-120; assay: as above
Procedure, shortened: as §1

[15] = test system: BT-474; assay: as above
Procedure, shortened: as §1

[16] = test system: HCC1599; assay: as above
Procedure, shortened: as §1

[17] = test system: MCF-10A; assay: as above
Procedure, shortened: as §1

[18] = test system: CAL-51; assay: as above
Procedure, shortened: as §1

[19] = test system: MDA-MB-453; assay: normalised viability (% of control), CellTiter-Blue; higher = more viable cells (about 100 = DMSO control)
Protocol: (§2)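 DSRT, CellTiter-Blue viability, 72 h incubation. Signal is normalised to DMSO and benzethonium chloride controls. Value is the normalised response at dose 7.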

[20] = test system: CAL-51; assay: as above
Protocol: as §2

[21] = test system: HCC1143; assay: normalised response (% of control), CellTox Green; higher = less cell death (100 = DMSO, 0 = benzethonium chloride kill control)
Procedure, shortened: as §1

[22] = test system: DU-4475; assay: as above
Procedure, shortened: as §1

[23] = test system: HCC1937; assay: as above
Procedure, shortened: as §1

[24] = test system: MFM-223; assay: as above
Procedure, shortened: as §1

[25] = test system: BT-549; assay: as above
Procedure, shortened: as §1

[26] = test system: HDQ-P1; assay: as above
Procedure, shortened: as §1

[27] = test system: CAL-148; assay: as above
Procedure, shortened: as §1

[28] = test system: BT-474; assay: as above
Procedure, shortened: as §1

[29] = test system: HCC1599; assay: as above
Procedure, shortened: as §1

| SMILES | normalised response [1] | normalised response [2] | normalised response [3] | normalised response [4] | normalised response [5] | normalised response [6] | normalised response [7] | normalised response [8] | normalised response [9] | normalised response [10] | normalised response [11] | normalised response [12] | normalised response [13] | normalised response [14] | normalised response [15] | normalised response [16] | normalised response [17] | normalised response [18] | normalised viability [19] | normalised viability [20] | normalised response [21] | normalised response [22] | normalised response [23] | normalised response [24] | normalised response [25] | normalised response [26] | normalised response [27] | normalised response [28] | normalised response [29] |
| --- | --- | --- | --- | --- | --- | --- | --- | --- | --- | --- | --- | --- | --- | --- | --- | --- | --- | --- | --- | --- | --- | --- | --- | --- | --- | --- | --- | --- | --- |
| Cc1cc2c(F)c(Oc3ncnn4cc(OC[C@@H](C)O)c(C)c34)ccc2[nH]1 [Brivanib] (100 nM) | 107% | 108% | 97.4% | 97.1% | 97% | 107% | 110% | 94% | 107% | 104% | 98.8% | 105% | 103% | 109% | 107% | 126% | 111% | 80.6% | 90% | 93.7% | 79.8% | 104% | 101% | 102% | 117% | 106% | 104% | 100% | 99.8% |
| CCCCCOC(=O)Nc1nc(=O)n([C@@H]2O[C@H](C)[C@@H](O)[C@H]2O)cc1F [Capecitabine] (1000 nM) | 103% | 101% | 94% | 92.2% | 111% | 102% | 98.7% | 104% | 98.2% | 96.2% | 107% | 98.6% | 105% | 107% | 103% | 104% | 97% | 112% | 86.8% and 94.9% | 106% and 104% | 109% | 99.2% | 71.6% | 99.4% | 117% | 110% | 76.8% | 99.1% | 96.3% |
| O=C(O)CC[C@H]1CC[C@@](c2cc(F)ccc2F)(S(=O)(=O)c2ccc(Cl)cc2)CC1 [MK-0752] (100 nM) | 108% | 107% | 98.5% | 92% | 108% | 109% | 104% | 91.6% | 104% | 95.6% | 103% | 95.4% | 109% | 95.6% | 98.7% | 109% | 109% | 113% | 109% | 101% | 105% | 107% | 96% | 94% | 131% | 109% | 59% | 102% | 111% |
| Cn1nnc2c(C(N)=O)ncn2c1=O [Temozolomide] (1000 nM) | 98.1% | 91.8% | 93.9% | 99.4% | 100% | 94.8% | 104% | 101% | 93.3% | 98.8% | 91.7% | 97.6% | 92% | 99.3% | 95.4% | 116% | 104% | 76.4% | 93.6% | 89.7% | 50.4% | 100% | 96.6% | 52% | 108% | 100% | 95.8% | 96.5% | 94.6% |
| CO[C@H](C(=O)[C@@H](O)[C@@H](C)O)[C@@H]1Cc2cc3cc(O[C@H]4C[C@@H](O[C@@H]5C[C@@H](O)[C@H](O)[C@@H](C)O5)[C@H](O)[C@@H](C)O4)c(C)c(O)c3c(O)c2C(=O)[C@H]1O[C@H]1C[C@@H](O[C@@H]2C[C@@H](O)[C@@H](O[C@@H]3C[C@](C)(O)[C@H](O)[C@@H](C)O3)[C@@H](C)O2)[C@H](O)[C@@H](C)O1 [Plicamycin] (1000 nM) | 101% | 91% | 90% | 100% | 105% | 104% | 103% | 89.5% | 94.2% | 102% | 104% | 104% | 106% | 105% | 91% | 120% | 110% | 86.9% | 8.78% and 7.08% | 4.92% and 5.48% | 81.6% | 104% | 104% | 81.3% | 107% | 97.8% | 109% | 100% | 94.9% |
| COc1cc2c(Oc3ccc(NC(=O)C4(C(=O)Nc5ccc(F)cc5)CC4)cc3F)ccnc2cc1OCCCN1CCOCC1 [Foretinib] (100 nM) | 93.8% | 105% | 98.1% | 98% | 85.6% | 75.7% | 110% | 114% | 87% | 95.5% | 96.1% | 102% | 107% | 93.9% | 92.3% | 89.8% | 95.1% | 99.5% | 91.1% | 85.4% | 106% | 101% | 111% | 101% | 113% | 109% | 102% | 100% | 99.2% |

— the supplement of paper PMC4862054
